Results from patent US20240279233A1, “MACROCYCLIC TAK1 INHIBITORS” (Aqilion AB, priority 2021, published 2024).
≈ marks a conversion by molar mass, not a printed value.

Experiments:
[1] = target: human recombinant TAK1-TAB1 Kinase (TAK1 (1-303) and TAB1 (437-end)) (Homo sapiens (Human), UniProt O43318); test: TAK1 biochemical ADP-Glo kinase assay; conditions: 10 μM ATP, MBP substrate; read-out: TAK1 Mean IC50 (nM) @ 10 μM ATP
How it was run: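 Inhibition of human recombinant TAK1-TAB1 kinase was measured with a Promega ADP-Glo luminescence assay in 384-well plates. Compounds in 5% DMSO were pre-incubated 10 min with 2 μl TAK1-TAB1 (7.5 ng/μl) in buffer of Tris pH 7.5, MgCl2, DTT and BSA. MBP substrate and ATP were then added for 1 hour at room temperature. ADP-Glo reagent and kinase detection substrate followed, luminescence was read on an Envision, and IC50 came from non-linear regression.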

[2] = Solubility assay in phosphate buffer; conditions: phosphate buffer, pH 7.4, aqueous buffer, kinetic from dmso stock, Solubility (μM), phosphate buffer 100 mM, pH 7.4, room temperature, 20-24 h, LC-UV
Procedure: The aqueous solubility of selected example compounds was determined as follows; 6 μL of DMSO stock solution of the selected example was added to 594 μL phosphate buffer (100 mM, pH 7.4). The resulting mixture was equilibrated over night (20-24 h, Alligator Shaker, room temperature). The mixture was then filtered (Millex LH 0.45 μm) and the concentration/solubility was determined by LC-UV quantification.

Sequence of human recombinant TAK1-TAB1 Kinase (TAK1 (1-303) and TAB1 (437-end)) (O43318 other isoform, or with tags, fused parts or gaps): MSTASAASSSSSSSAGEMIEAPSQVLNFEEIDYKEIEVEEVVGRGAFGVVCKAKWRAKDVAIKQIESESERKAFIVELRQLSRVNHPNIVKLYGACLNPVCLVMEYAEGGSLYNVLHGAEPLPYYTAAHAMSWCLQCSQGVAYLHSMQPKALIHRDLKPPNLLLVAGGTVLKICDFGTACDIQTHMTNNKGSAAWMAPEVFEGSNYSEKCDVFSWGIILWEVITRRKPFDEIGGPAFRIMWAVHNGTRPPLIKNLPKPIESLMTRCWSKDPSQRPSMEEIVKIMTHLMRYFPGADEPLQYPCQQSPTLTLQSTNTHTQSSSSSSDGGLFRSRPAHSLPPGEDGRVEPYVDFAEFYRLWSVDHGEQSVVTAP

Structure (SMILES)	IC50 [1] [nM]	solubility [2] [µM]
CC(C)(C)OC(=O)N1CCN(C(=O)c2ccc3c(c2)nc2n3CCCCCNC(=O)c3cccc(c3)C(=O)N2)CC1 [Example 13, tert-butyl 4-(3,5-dioxo-1^1H-2,6-diaza-1(2,1)-benzo[d]imidazola-4(1,3)-benzenacycloundecaphane-1^5-carbonyl)piperazine-1-carboxylate]	1	0.2 (≈ 0.112 µg/mL)
CC(C)(C)OC(=O)N1CCN(C(=O)c2cccc3nc4n(c23)CCCCCNC(=O)c2cccc(c2)C(=O)N4)CC1 [Example 14, tert-butyl 4-(3,5-dioxo-1^1H-2,6-diaza-1(2,1)-benzo[d]imidazola-4(1,3)-benzenacycloundecaphane-1^7-carbonyl)piperazine-1-carboxylate]	11	0.3 (≈ 0.168 µg/mL)
CC1CCCCNC(=O)c2cccc(c2)C(=O)Nc2nc3cccc(C(=O)N4CCNCC4)c3n21 (centres unmarked) [Example 15, 11-methyl-1^7-(piperazine-1-carbonyl)-1^1H-2,6-diaza-1(2,1)-benzo[d]imidazola-4(1,3)-benzenacycloundecaphane-3,5-dione]	5	90.1 (≈ 42.8 µg/mL)
O=C1NCCCCCn2c(nc3cc(C(=O)N4CCNCC4)ccc32)NC(=O)c2cccc1c2 [Example 16, 1^5-(piperazine-1-carbonyl)-1^1H-2,6-diaza-1(2,1)-benzo[d]imidazola-4(1,3)-benzenacycloundecaphane-3,5-dione]	3	78.8 (≈ 36.3 µg/mL)
O=C1NCCCCCn2c(nc3cccc(C(=O)N4CCNCC4)c32)NC(=O)c2cccc1c2 [Example 17, 1^7-(piperazine-1-carbonyl)-1^1H-2,6-diaza-1(2,1)-benzo[d]imidazola-4(1,3)-benzenacycloundecaphane-3,5-dione]	4	93.6 (≈ 43.1 µg/mL)
O=C1/N=C2\Nc3cccc(C(=O)N4CCN(C5COC5)CC4)c3N2CCCCCNC(=O)c2cccc1c2 [Example 19, (E)-1^7-(4-(oxetan-3-yl)piperazine-1-carbonyl)-1^2,1^3-dihydro-1^1H-2,6-diaza-1(2,1)-benzo[d]imidazola-4(1,3)-benzenacycloundecaphane-3,5-dione]	7	8.5 (≈ 4.39 µg/mL)
C[C@@H]1CN(C)CCN1C(=O)c1cccc2c1N1CCCCCNC(=O)c3cccc(c3)C(=O)/N=C/1N2 [Example 20, (R,E)-1^7-(2,4-dimethylpiperazine-1-carbonyl)-1^2,1^3-dihydro-1^1H-2,6-diaza-1(2,1)-benzo[d]imidazola-4(1,3)-benzenacycloundecaphane-3,5-dione]	19	35 (≈ 17.1 µg/mL)
CN(C)[C@H]1CCN(C(=O)c2cccc3c2N2CCCCCNC(=O)c4cccc(c4)C(=O)/N=C/2N3)C1 [Example 21, (S,E)-1^7-(3-(dimethylamino)pyrrolidine-1-carbonyl)-1^2,1^3-dihydro-1^1H-2,6-diaza-1(2,1)-benzo[d]imidazola-4(1,3)-benzenacycloundecaphane-3,5-dione]	7	85.1 (≈ 41.6 µg/mL)
CN1C[C@@H]2C[C@H]1CN2C(=O)c1cccc2c1N1CCCCCNC(=O)c3cccc(c3)C(=O)/N=C/1N2 [Example 22, (E)-1^7-((1S,4S)-5-methyl-2,5-diazabicyclo[2.2.1]heptane-2-carbonyl)-1^2,1^3-dihydro-1^1H-2,6-diaza-1(2,1)-benzo[d]imidazola-4(1,3)-benzenacycloundecaphane-3,5-dione]	9	88.5 (≈ 43.1 µg/mL)
CN(C)[C@@H]1CCN(C(=O)c2cccc3c2N2CCCCCNC(=O)c4cccc(c4)C(=O)/N=C/2N3)C1 [Example 23, (R,E)-1^7-(3-(dimethylamino)pyrrolidine-1-carbonyl)-1^2,1^3-dihydro-1^1H-2,6-diaza-1(2,1)-benzo[d]imidazola-4(1,3)-benzenacycloundecaphane-3,5-dione]	8	83.3 (≈ 40.7 µg/mL)
C[C@H]1CN(C)CCN1C(=O)c1cccc2c1N1CCCCCNC(=O)c3cccc(c3)C(=O)/N=C/1N2 [Example 24, (S,E)-1^7-(2,4-dimethylpiperazine-1-carbonyl)-1^2,1^3-dihydro-1^1H-2,6-diaza-1(2,1)-benzo[d]imidazola-4(1,3)-benzenacycloundecaphane-3,5-dione]	4	26.2 (≈ 12.8 µg/mL)
CN1C[C@H]2C[C@@H]1CN2C(=O)c1cccc2c1N1CCCCCNC(=O)c3cccc(c3)C(=O)/N=C/1N2 [Example 25, (E)-1^7-((1R,4R)-5-methyl-2,5-diazabicyclo[2.2.1]heptane-2-carbonyl)-1^2,1^3-dihydro-1^1H-2,6-diaza-1(2,1)-benzo[d]imidazola-4(1,3)-benzenacycloundecaphane-3,5-dione]	2	82 (≈ 39.9 µg/mL)
CN1CCCN(C(=O)c2cccc3c2N2CCCCCNC(=O)c4cccc(c4)C(=O)/N=C/2N3)CC1 [Example 26, (E)-1^7-(4-methyl-1,4-diazepane-1-carbonyl)-1^2,1^3-dihydro-1^1H-2,6-diaza-1(2,1)-benzo[d]imidazola-4(1,3)-benzenacycloundecaphane-3,5-dione]	5	78.7 (≈ 38.5 µg/mL)
C[C@@H]1CCCCNC(=O)c2cccc(c2)C(=O)/N=C2\Nc3cccc(C(=O)N4C[C@H]5C[C@@H]4CN5C)c3N21 [Example 29, (R, E)-11-methyl-1^7-((1R,4R)-5-methyl-2,5-diazabicyclo[2.2.1]heptane-2-carbonyl)-1^2,1^3-dihydro-1^1H-2,6-diaza-1(2,1)-benzo[d]imidazola-4(1,3)-benzenacycloundecaphane-3,5-dione]	6	95 (≈ 47.6 µg/mL)
C[C@H]1CCCCNC(=O)c2cccc(c2)C(=O)/N=C2\Nc3cccc(C(=O)N4C[C@H]5C[C@@H]4CN5C)c3N21 [Example 30, (S, E)-11-methyl-1^7-((1R,4R)-5-methyl-2,5-diazabicyclo[2.2.1]heptane-2-carbonyl)-1^2,1^3-dihydro-1^1H-2,6-diaza-1(2,1)-benzo[d]imidazola-4(1,3)-benzenacycloundecaphane-3,5-dione]	8	95 (≈ 47.6 µg/mL)
CC1CCCCNC(=O)c2cccc(c2)C(=O)/N=C2\Nc3cccc(C(=O)N4CCC4)c3N21 (centres unmarked) [Example 43, (E)-1^7-(azetidine-1-carbonyl)-11-methyl-1^2,1^3-dihydro-1^1H-2,6-diaza-1(2,1)-benzo[d]imidazola-4(1,3)-benzenacycloundecaphane-3,5-dione]	4	16 (≈ 7.13 µg/mL)
C[C@H]1CCCCn2c(nc3cccc(C(=O)N(C)C)c32)NC(=O)c2cccc(c2)C(=O)N1 [Example 44, (S,E)-N,N,7-trimethyl-3,5-dioxo-1^2,1^3-dihydro-1^1H-2,6-diaza-1(2,1)-benzo[d]imidazola-4(1,3)-benzenacycloundecaphane-1^7-carboxamide]	223	26 (≈ 11.3 µg/mL)
CC(=O)Nc1cccc2c1N1/C(=N/C(=O)c3cccc(c3)C(=O)NCCCCC1C)N2 (centres unmarked) [Example 45, (E)-N-(11-methyl-3,5-dioxo-1^2,1^3-dihydro-1^1H-2,6-diaza-1(2,1)-benzo[d]imidazola-4(1,3)-benzenacycloundecaphane-1^7-yl)acetamide]	4	74 (≈ 31 µg/mL)
CC(C)N(C)C(=O)c1cccc2c1N1/C(=N/C(=O)c3cccc(c3)C(=O)NCCCCC1C)N2 (centres unmarked) [Example 47, (E)-N-isopropyl-N,11-dimethyl-3,5-dioxo-1^2,1^3-dihydro-1^1H-2,6-diaza-1(2,1)-benzo[d]imidazola-4(1,3)-benzenacycloundecaphane-1^7-carboxamide]	1	42 (≈ 19.4 µg/mL)
